Data published in ChEMBL document CHEMBL4507311, “Data for DCP probe A-1155463” (2021).

What was measured:
[1] = biological target: Ribosomal protein S6 kinase alpha-1 (Homo sapiens) (UniProt Q15418); details: Compound concentration 1000.0 nM
[2] = biological target: Microtubule-associated serine/threonine-protein kinase 1 (Homo sapiens) (UniProt Q9Y2H9); details: Compound concentration 1000.0 nM
[3] = biological target: Ephrin type-A receptor 3 (Homo sapiens) (UniProt P29320); details: Compound concentration 1000.0 nM
Sequence of Ephrin type-A receptor 3 (Homo sapiens) (P29320 whole entry): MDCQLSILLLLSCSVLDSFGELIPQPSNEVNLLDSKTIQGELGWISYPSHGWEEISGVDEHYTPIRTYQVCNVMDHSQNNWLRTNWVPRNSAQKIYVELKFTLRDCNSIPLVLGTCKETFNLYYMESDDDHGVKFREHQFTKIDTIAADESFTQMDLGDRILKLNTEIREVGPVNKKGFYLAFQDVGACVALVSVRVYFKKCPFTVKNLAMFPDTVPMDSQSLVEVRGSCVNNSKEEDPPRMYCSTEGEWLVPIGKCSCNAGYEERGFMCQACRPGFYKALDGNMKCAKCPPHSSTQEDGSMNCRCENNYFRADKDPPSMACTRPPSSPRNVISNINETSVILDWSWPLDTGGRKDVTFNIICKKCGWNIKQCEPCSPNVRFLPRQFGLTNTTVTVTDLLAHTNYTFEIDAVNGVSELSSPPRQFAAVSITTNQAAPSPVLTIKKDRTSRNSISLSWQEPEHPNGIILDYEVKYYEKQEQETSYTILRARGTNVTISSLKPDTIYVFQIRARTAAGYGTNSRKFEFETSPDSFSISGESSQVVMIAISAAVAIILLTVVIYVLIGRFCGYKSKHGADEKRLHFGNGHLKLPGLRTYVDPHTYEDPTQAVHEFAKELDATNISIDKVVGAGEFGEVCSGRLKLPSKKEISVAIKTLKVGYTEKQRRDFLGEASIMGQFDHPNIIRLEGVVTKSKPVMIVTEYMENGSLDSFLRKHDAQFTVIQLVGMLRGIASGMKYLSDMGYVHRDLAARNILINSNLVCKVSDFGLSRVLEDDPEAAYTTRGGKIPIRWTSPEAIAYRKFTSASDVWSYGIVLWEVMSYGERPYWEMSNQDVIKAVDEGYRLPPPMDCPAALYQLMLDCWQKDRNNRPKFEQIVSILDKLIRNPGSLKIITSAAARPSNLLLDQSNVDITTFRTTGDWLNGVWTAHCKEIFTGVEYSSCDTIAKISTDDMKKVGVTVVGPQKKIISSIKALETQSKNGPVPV

[4] = biological target: Mitogen-activated protein kinase kinase kinase kinase 4 (Homo sapiens) (UniProt O95819); details: Compound concentration 1000.0 nM
[5] = biological target: Serine/threonine-protein kinase 17B (Homo sapiens) (UniProt O94768); details: Compound concentration 1000.0 nM
Sequence of Serine/threonine-protein kinase 17B (Homo sapiens) (O94768 whole entry): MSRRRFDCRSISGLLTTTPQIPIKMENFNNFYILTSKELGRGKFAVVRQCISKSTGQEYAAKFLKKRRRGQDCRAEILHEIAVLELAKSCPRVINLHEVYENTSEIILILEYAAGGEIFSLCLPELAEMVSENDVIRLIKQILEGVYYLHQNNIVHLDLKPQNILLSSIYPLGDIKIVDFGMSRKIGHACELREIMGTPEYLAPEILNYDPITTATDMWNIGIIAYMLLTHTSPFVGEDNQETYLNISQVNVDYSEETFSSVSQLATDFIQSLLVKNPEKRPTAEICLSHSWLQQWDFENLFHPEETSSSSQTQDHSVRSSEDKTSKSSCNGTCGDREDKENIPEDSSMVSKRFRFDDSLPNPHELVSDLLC

[6] = biological target: Mitogen-activated protein kinase 14 (Homo sapiens) (UniProt Q16539); details: Compound concentration 1000.0 nM
[7] = biological target: Casein kinase II subunit alpha (Homo sapiens) (UniProt P68400); details: Compound concentration 1000.0 nM
[8] = biological target: Homeodomain-interacting protein kinase 4 (Homo sapiens) (UniProt Q8NE63); details: Compound concentration 1000.0 nM
Sequence of Homeodomain-interacting protein kinase 4 (Homo sapiens) (Q8NE63 whole entry): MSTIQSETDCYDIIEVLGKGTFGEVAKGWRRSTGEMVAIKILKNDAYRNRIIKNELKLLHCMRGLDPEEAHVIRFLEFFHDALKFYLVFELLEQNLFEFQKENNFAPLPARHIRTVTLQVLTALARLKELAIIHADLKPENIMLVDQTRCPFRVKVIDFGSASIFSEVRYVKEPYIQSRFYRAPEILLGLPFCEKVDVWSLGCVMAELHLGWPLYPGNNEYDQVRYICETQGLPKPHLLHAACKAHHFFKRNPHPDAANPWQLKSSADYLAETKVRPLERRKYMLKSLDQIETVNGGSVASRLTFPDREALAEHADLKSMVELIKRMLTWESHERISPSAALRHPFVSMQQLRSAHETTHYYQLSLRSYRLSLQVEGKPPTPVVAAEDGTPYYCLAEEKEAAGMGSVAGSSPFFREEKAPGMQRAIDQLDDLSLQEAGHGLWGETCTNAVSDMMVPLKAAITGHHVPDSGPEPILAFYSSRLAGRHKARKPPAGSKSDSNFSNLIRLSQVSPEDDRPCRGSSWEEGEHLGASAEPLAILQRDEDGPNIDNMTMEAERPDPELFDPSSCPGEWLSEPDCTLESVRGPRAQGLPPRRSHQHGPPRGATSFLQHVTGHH

[9] = biological target: Serine/threonine-protein kinase PAK 2 (Homo sapiens) (UniProt Q13177); details: Compound concentration 1000.0 nM
[10] = biological target: Myosin-IIIb (Homo sapiens) (UniProt Q8WXR4); details: Compound concentration 1000.0 nM
Sequence of Myosin-IIIb (Homo sapiens) (Q8WXR4 whole entry): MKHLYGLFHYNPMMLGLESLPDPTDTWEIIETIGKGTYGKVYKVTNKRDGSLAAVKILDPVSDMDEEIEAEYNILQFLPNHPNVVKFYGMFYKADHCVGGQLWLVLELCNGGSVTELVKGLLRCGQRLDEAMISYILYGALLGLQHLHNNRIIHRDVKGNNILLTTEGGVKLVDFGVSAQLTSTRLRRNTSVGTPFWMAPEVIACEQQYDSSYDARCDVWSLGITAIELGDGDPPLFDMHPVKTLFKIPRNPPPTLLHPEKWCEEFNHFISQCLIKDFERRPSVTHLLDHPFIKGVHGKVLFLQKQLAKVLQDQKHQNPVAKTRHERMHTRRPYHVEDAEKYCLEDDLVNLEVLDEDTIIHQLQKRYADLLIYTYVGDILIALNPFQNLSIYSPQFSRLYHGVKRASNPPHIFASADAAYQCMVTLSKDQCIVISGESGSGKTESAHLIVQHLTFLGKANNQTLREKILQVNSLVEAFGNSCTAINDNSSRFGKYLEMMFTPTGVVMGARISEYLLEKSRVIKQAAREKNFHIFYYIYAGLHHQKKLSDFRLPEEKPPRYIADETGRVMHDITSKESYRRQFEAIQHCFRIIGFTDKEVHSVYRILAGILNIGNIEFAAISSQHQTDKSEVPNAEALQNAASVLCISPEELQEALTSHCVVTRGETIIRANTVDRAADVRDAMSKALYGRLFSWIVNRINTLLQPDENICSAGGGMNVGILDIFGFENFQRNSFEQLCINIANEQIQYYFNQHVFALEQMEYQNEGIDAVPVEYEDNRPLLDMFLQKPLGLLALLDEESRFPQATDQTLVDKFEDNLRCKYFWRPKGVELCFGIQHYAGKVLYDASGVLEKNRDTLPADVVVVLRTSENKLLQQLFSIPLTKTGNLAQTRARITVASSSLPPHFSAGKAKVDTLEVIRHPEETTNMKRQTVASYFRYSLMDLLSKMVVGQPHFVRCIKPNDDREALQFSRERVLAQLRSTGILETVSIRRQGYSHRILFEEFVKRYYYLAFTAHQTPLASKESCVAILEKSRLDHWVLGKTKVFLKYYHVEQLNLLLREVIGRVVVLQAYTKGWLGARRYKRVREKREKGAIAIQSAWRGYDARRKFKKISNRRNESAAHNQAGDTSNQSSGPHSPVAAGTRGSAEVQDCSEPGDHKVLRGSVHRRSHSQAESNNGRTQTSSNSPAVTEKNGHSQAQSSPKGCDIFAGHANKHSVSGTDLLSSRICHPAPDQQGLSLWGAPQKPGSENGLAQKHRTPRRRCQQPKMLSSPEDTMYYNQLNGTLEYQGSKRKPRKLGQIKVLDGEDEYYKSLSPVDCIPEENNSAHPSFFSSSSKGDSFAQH

[11] = biological target: Homeodomain-interacting protein kinase 2 (Homo sapiens) (UniProt Q9H2X6); details: Compound concentration 1000.0 nM
[12] = tested on: Tyrosine-protein kinase ABL1 (Homo sapiens), P00519 [F317L]; details: Compound concentration 1000.0 nM
[13] = biological target: Ribosomal protein S6 kinase alpha-2 (Homo sapiens) (UniProt Q15349); details: Compound concentration 1000.0 nM
[14] = tested on: Phosphatidylinositol 4,5-bisphosphate 3-kinase catalytic subunit alpha isoform (Homo sapiens), P42336 [C420R]; details: Compound concentration 1000.0 nM
[15] = biological target: Mitogen-activated protein kinase kinase kinase 11 (Homo sapiens) (UniProt Q16584); details: Compound concentration 1000.0 nM
[16] = biological target: Serine/threonine-protein kinase Chk2 (Homo sapiens) (UniProt O96017); details: Compound concentration 1000.0 nM
Sequence of Serine/threonine-protein kinase Chk2 (Homo sapiens) (O96017 whole entry): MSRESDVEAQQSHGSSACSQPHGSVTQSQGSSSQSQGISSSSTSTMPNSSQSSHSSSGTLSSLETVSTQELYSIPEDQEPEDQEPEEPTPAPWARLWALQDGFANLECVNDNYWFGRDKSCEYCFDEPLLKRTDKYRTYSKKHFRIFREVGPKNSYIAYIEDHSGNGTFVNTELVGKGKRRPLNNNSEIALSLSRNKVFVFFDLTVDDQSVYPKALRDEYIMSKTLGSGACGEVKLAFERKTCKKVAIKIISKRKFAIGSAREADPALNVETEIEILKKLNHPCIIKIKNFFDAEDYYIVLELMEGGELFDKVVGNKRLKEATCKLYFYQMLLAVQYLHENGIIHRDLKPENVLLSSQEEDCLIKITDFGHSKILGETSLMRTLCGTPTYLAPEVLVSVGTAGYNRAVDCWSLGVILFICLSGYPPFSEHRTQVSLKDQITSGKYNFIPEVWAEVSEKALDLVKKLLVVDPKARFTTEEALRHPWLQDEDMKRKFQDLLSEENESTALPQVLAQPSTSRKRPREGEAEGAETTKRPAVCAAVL

[17] = biological target: Death-associated protein kinase 1 (Homo sapiens) (UniProt P53355); details: Compound concentration 1000.0 nM
[18] = biological target: Mitogen-activated protein kinase 1 (Homo sapiens) (UniProt P28482); details: Compound concentration 1000.0 nM
[19] = biological target: Phosphatidylinositol 5-phosphate 4-kinase type-2 gamma (Homo sapiens) (UniProt Q8TBX8); details: Compound concentration 1000.0 nM
[20] = biological target: Serine/threonine-protein kinase PLK4 (Homo sapiens) (UniProt O00444); details: Compound concentration 1000.0 nM
[21] = biological target: Phosphatidylinositol 4,5-bisphosphate 3-kinase catalytic subunit beta isoform (Homo sapiens) (UniProt P42338); details: Compound concentration 1000.0 nM
[22] = biological target: Activin receptor type-1 (Homo sapiens) (UniProt Q04771); details: Compound concentration 1000.0 nM
[23] = tested on: Mast/stem cell growth factor receptor Kit (Homo sapiens), P10721 [D816V]; details: Compound concentration 1000.0 nM
[24] = tested on: Receptor-type tyrosine-protein kinase FLT3 (Homo sapiens), P36888 [N841I]; details: Compound concentration 1000.0 nM
[25] = biological target: Cyclin-dependent kinase-like 5 (Homo sapiens) (UniProt O76039); details: Compound concentration 1000.0 nM
[26] = biological target: Tyrosine-protein kinase JAK2 (Homo sapiens) (UniProt O60674); details: Compound concentration 1000.0 nM
[27] = biological target: Myosin light chain kinase 2, skeletal/cardiac muscle (Homo sapiens) (UniProt Q9H1R3); details: Compound concentration 1000.0 nM
[28] = biological target: Rhodopsin kinase GRK1 (Homo sapiens) (UniProt Q15835); details: Compound concentration 1000.0 nM
[29] = biological target: Dual specificity mitogen-activated protein kinase kinase 7 (Homo sapiens) (UniProt O14733); details: Compound concentration 1000.0 nM
[30] = biological target: Serine/threonine-protein kinase 33 (Homo sapiens) (UniProt Q9BYT3); details: Compound concentration 1000.0 nM
[31] = biological target: Sodium-dependent serotonin transporter (Homo sapiens) (UniProt P31645); details: Compound concentration 10.0 uM
[32] = biological target: Phosphatidylinositol 4,5-bisphosphate 3-kinase catalytic subunit delta isoform (Homo sapiens) (UniProt O00329); details: Compound concentration 1000.0 nM
[33] = tested on: ALK tyrosine kinase receptor (Homo sapiens), Q9UM73 [C1156Y]; details: Compound concentration 1000.0 nM
[34] = biological target: Cyclin-dependent kinase-like 1 (Homo sapiens) (UniProt Q00532); details: Compound concentration 1000.0 nM
[35] = biological target: Mitogen-activated protein kinase kinase kinase 9 (Homo sapiens) (UniProt P80192); details: Compound concentration 1000.0 nM
[36] = biological target: Tyrosine-protein kinase CSK (Homo sapiens) (UniProt P41240); details: Compound concentration 1000.0 nM
Sequence of Tyrosine-protein kinase CSK (Homo sapiens) (P41240 2-450 limits assumed): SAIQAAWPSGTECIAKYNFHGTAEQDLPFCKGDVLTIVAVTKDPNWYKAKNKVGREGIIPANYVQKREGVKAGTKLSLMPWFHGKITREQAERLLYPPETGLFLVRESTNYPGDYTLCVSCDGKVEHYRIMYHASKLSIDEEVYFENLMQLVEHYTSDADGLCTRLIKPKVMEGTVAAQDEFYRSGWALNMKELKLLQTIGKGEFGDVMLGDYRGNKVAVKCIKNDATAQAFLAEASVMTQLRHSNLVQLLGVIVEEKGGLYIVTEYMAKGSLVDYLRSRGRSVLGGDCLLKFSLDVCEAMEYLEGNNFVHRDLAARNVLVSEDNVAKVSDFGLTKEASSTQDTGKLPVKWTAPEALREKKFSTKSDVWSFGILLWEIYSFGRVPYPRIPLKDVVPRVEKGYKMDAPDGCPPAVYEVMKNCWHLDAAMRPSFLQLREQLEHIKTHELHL

[37] = tested on: Phosphatidylinositol 4,5-bisphosphate 3-kinase catalytic subunit alpha isoform (Homo sapiens), P42336 [H1047L]; details: Compound concentration 1000.0 nM
[38] = biological target: Hormonally up-regulated neu tumor-associated kinase (Homo sapiens) (UniProt P57058); details: Compound concentration 1000.0 nM
[39] = tested on: Mast/stem cell growth factor receptor Kit (Homo sapiens), P10721 [A829P]; details: Compound concentration 1000.0 nM
[40] = biological target: Protein kinase C eta type (Homo sapiens) (UniProt P24723); details: Compound concentration 1000.0 nM
Sequence of Protein kinase C eta type (Homo sapiens) (P24723 whole entry): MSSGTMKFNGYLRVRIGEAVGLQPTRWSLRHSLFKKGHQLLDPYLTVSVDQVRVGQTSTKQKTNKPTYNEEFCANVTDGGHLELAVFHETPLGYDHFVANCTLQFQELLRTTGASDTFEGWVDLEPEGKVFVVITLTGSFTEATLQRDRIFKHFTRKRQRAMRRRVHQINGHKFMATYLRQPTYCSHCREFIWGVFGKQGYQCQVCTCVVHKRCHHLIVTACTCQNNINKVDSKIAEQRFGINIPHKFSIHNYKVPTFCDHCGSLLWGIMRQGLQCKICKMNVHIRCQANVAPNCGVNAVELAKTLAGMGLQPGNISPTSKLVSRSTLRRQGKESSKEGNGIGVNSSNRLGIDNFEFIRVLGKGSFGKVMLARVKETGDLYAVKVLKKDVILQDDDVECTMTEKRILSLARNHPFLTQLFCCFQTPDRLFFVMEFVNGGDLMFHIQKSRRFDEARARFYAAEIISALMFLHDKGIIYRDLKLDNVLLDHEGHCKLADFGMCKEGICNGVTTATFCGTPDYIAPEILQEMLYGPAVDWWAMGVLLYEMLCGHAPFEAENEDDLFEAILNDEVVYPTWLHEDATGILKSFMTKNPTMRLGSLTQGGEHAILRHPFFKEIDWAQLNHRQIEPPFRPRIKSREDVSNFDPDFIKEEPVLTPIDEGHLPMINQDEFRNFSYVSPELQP

[41] = biological target: Serine/threonine-protein kinase B-raf (Homo sapiens) (UniProt P15056); details: Compound concentration 1000.0 nM
[42] = biological target: cGMP-dependent protein kinase 1 (Homo sapiens) (UniProt Q13976); details: Compound concentration 1000.0 nM

CN(C)CC#Cc1ccc(OCCCc2sc(N3CCc4cccc(C(=O)Nc5nc6ccccc6s5)c4C3)nc2C(=O)O)c(F)c1 [A-1155463]
inactive: residual activity [1] 93% | residual activity [2] 89% | residual activity [3] 91% | residual activity [4] 96% | residual activity [5] 72% | residual activity [6] 100% | residual activity [7] 100% | residual activity [8] 100% | residual activity [9] 93% | residual activity [10] 96% | residual activity [11] 100% | residual activity [12] 100% | residual activity [13] 100% | residual activity [14] 100% | residual activity [15] 100% | residual activity [16] 100% | residual activity [17] 91% | residual activity [18] 100% | residual activity [19] 100% | residual activity [20] 77% | residual activity [21] 100% | residual activity [22] 100% | residual activity [23] 100% | residual activity [24] 81% | residual activity [25] 96% | residual activity [26] 100% | residual activity [27] 100% | residual activity [28] 95% | residual activity [29] 69% | residual activity [30] 100% | inhibition [31] 16.4% | residual activity [32] 100% | residual activity [33] 100% | residual activity [34] 100% | residual activity [35] 92% | residual activity [36] 90% | residual activity [37] 68% | residual activity [38] 56% | residual activity [39] 100% | residual activity [40] 74% | residual activity [41] 100% | residual activity [42] 100%
